Assay results published in ChEMBL document CHEMBL2146391, “Glucose uptake stimulatory effect of 4-hydroxypipecolic acid by increased GLUT 4 translocation in skeletal muscle cells” (Bioorg Med Chem Lett, 2012).
Calls of active or inactive are those of the source. The calls are words filed in the database; no cut-off is given here.

Experiments:
[1] = test system: L6; experiment: Hypoglycemic activity in rat L6-GLUT4myc myotubes assessed as increase in 2-[3H]-deoxyglucose uptake after 16 hrs by scintillation counter; assay type: functional, cell-based
[2] = test system: L6; experiment: Induction of PKB mRNA expression in rat L6-GLUT4myc myotubes at 25 uM after 16 hrs by semiquantitative RT-PCR analysis; assay type: functional, cell-based
[3] = test system: L6; experiment: Hypoglycemic activity in rat L6-GLUT4myc myotubes assessed as increase in 2-[3H]-deoxyglucose uptake at 25 uM after 16 hrs by scintillation counter relative to control; assay type: functional
[4] = test system: L6; experiment: Hypoglycemic activity in rat L6-GLUT4myc myotubes assessed as increase in 2-[3H]-deoxyglucose uptake at 5 uM after 16 hrs by scintillation counter; assay type: functional, cell-based
[5] = test system: L6; experiment: Induction of IRS-1 mRNA expression in rat L6-GLUT4myc myotubes at 25 uM after 16 hrs by semiquantitative RT-PCR analysis; assay type: functional, cell-based
[6] = test system: L6; experiment: Cytotoxicity against rat L6-GLUT4myc myotubes assessed as change in protein level at 25 uM after 16 hrs; assay type: cell-based; details: l6, 16 h
[7] = test system: L6; experiment: Increase of insulin-stimulated GLUT4 translocation from intracellular compartment into plasma membrane of rat L6-GLUT4myc myotubes at 25 uM after 16 hrs by O-phenylenediamide based enzymatic assay in presence of PI3K inhibitor wortmannin; assay type: functional, cell-based
[8] = test system: L6; experiment: Induction of GLUT4 translocation from intracellular compartment into plasma membrane of rat L6-GLUT4myc myotubes at 25 uM by O-phenylenediamide based enzymatic assay relative to control; assay type: functional, cell-based; details: TDE = time-dependent effect
[9] = test system: L6; experiment: Increase of insulin-stimulated GLUT4 translocation from intracellular compartment into plasma membrane of rat L6-GLUT4myc myotubes at 25 uM after 16 hrs by O-phenylenediamide based enzymatic assay; assay type: functional, cell-based
[10] = test system: L6; experiment: Induction of GLUT4 translocation from intracellular compartment into plasma membrane of rat L6-GLUT4myc myotubes at 10 uM after 16 hrs by O-phenylenediamide based enzymatic assay; assay type: functional, cell-based
[11] = test system: L6; experiment: Induction of GLUT4 translocation from intracellular compartment into plasma membrane of rat L6-GLUT4myc myotubes at 25 uM after 16 hrs by O-phenylenediamide based enzymatic assay relative to control; assay type: functional
[12] = test system: L6; experiment: Induction of GLUT4 translocation from intracellular compartment into plasma membrane of rat L6-GLUT4myc myotubes after 16 hrs by O-phenylenediamide based enzymatic assay; assay type: functional, cell-based
[13] = test system: L6; experiment: Induction of GLUT4 mRNA expression in rat L6-GLUT4myc myotubes at 25 uM after 16 hrs by semiquantitative RT-PCR analysis; assay type: functional, cell-based
[14] = test system: L6; experiment: Cytotoxicity against rat L6-GLUT4myc myotubes assessed as cell viability at 25 uM after 16 hrs by MTT assay; assay type: cell-based; details: l6, 16 h

## O=C(O)C1C[C@@H](O)CCN1 (some centres undefined)
[1]
  Activity: Dose-dependent effect
[2]
  Activity: inactive
[3]
  fold change (FC): 1.25
[4]
  Activity: Active
[5]
  Activity: Active
[6]
  Activity: Non-toxic
[7]
  Activity: inactive
[8]
  Activity: tde
[9]
  Activity: Active
[10]
  Activity: Active
[11]
  Activity: 130%
[12]
  Activity: Dose-dependent effect
[13]
  Activity: inactive
[14]
  Activity: Non-toxic
